Numbering of substitutions follows the chain as printed. Where a SMILES comes first, the peptide text is derived from it. Bridges are numbered along the chain shown (N, C = ends).
Tests used:
Experiment in all cases: cAMP accumulation
Format in all cases: cell-based
Conditions in all cases: mean ± S.E.M.; for Emax: cAMP maximal response, SEM; for EC50: cAMP, CV1-FlpIn cells, 30 min, IBMX
[1] = target: T1, hCTR L297A (Homo sapiens, UniProt P30988, L297A)
T1 construct: c-Myc (N); expressed in transfected cells
T1 sequence (P30988 25-474 L297A): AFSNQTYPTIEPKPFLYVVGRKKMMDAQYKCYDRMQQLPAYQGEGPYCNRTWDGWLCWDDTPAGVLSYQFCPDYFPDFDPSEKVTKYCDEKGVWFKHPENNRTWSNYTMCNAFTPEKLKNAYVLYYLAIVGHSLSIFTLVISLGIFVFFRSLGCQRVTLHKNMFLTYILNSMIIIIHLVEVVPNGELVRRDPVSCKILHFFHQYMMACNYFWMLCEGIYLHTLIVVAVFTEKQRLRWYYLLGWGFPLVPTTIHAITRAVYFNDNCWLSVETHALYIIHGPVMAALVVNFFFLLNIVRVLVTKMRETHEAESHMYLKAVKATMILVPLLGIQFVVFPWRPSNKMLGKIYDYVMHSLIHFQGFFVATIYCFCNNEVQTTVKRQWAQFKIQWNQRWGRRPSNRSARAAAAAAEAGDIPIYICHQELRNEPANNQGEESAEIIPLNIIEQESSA
In short: (§1)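 Read-out: cAMP accumulated over 30 min of graded ligand exposure in IBMX-containing medium, expressed relative to 100 μM forskolin. Potency (EC50) and maximal effect (Emax) derive from 3-parameter logistic concentration-response curves.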

[2] = target: T2, hCTR V293A (Homo sapiens, UniProt P30988, V293A)
T2 construct: c-Myc (N); expressed in transfected cells
T2 sequence (P30988 25-474 V293A): T1 sequence (P30988 25-474 L297A) with V269A, A273L
In short: as §1

[3] = target: T3, hCTR R281A (Homo sapiens, UniProt P30988, R281A)
T3 construct: expressed in transfected cells
T3 sequence (P30988 25-474 R281A): T1 sequence (P30988 25-474 L297A) with R257A, A273L
In short: as §1

[4] = target: T4, hCTR N286A (Homo sapiens, UniProt P30988, N286A)
T4 construct: c-Myc (N); expressed in transfected cells
T4 sequence (P30988 25-474 N286A): T1 sequence (P30988 25-474 L297A) with N262A, A273L
In short: as §1

[5] = target: T5, hCTR V358A (Homo sapiens, UniProt P30988, V358A)
T5 construct: c-Myc (N); expressed in transfected cells
T5 sequence (P30988 25-474 V358A): T1 sequence (P30988 25-474 L297A) with A273L, V334A
In short: as §1

EC50 [1] [nM] | EC50 [2] [nM] | EC50 [3] [nM] | EC50 [4] [nM] | EC50 [5] [nM] | Compound | Emax [1] [%] | Emax [2] [%] | Emax [3] [%] | Emax [4] [%] | Emax [5] [%]
– | – | – | – | – | CC[C@H](C)[C@H](NC(=O)[C@H](C)NC(=O)[C@@H](NC(=O)[C@H](CCC(N)=O)NC(=O)[C@@H]1CCCN1C(=O)[C@H](Cc1ccccc1)NC(=O)[C@@H](NC(=O)[C@H](Cc1c[nH]cn1)NC(=O)[C@H](Cc1ccccc1)NC(=O)[C@H](CCCCN)NC(=O)[C@H](CC(N)=O)NC(=O)[C@H](Cc1ccccc1)NC(=O)[C@H](CC(=O)O)NC(=O)[C@H](CCC(N)=O)NC(=O)[C@@H](NC(=O)[C@H](Cc1ccc(O)cc1)NC(=O)[C@@H](NC(=O)CNC(=O)[C@H](CC(C)C)NC(=O)[C@H](CCSC)NC(=O)[C@@H]1CSSC[C@H](N)C(=O)NCC(=O)N[C@@H](CC(N)=O)C(=O)N[C@@H](CC(C)C)C(=O)N[C@@H](CO)C(=O)N[C@@H]([C@@H](C)O)C(=O)N1)[C@@H](C)O)[C@@H](C)O)[C@@H](C)O)[C@@H](C)O)C(=O)NCC(=O)N[C@H](C(=O)NCC(=O)N[C@@H](C)C(=O)N1CCC[C@H]1C(N)=O)C(C)C [hCT] | 91 ± 6 | 123 ± 8 | 117 ± 15 | 126 ± 6 | 98 ± 4
36.3 | 8.71 | 38.9 | 14.1 | 20.9 | CC(C)C[C@H](NC(=O)CNC(=O)[C@H](C)NC(=O)[C@H](CC(C)C)NC(=O)[C@H](CCCNC(=N)N)NC(=O)[C@H](Cc1cnc[nH]1)NC(=O)[C@@H](NC(=O)[C@@H](NC(=O)[C@@H]1CSSC[C@H](NC(=O)[C@H](C)N)C(=O)N[C@@H](CC(=O)O)C(=O)N[C@@H]([C@@H](C)O)C(=O)N[C@@H](C)C(=O)N[C@@H]([C@@H](C)O)C(=O)N1)C(C)C)[C@@H](C)O)C(=O)N[C@@H](CC(C)C)C(=O)N[C@@H](CO)C(=O)N[C@@H](CCCNC(=N)N)C(=O)N[C@@H](CO)C(=O)NCC(=O)NCC(=O)N[C@H](C(=O)N[C@H](C(=O)N[C@@H](CCCCN)C(=O)N[C@@H](CC(N)=O)C(=O)N[C@@H](CC(N)=O)C(=O)N[C@@H](Cc1ccccc1)C(=O)N[C@H](C(=O)N1CCC[C@H]1C(=O)N[C@H](C(=O)N[C@@H](CC(N)=O)C(=O)N[C@H](C(=O)NCC(=O)N[C@@H](CO)C(=O)N[C@@H](CCCCN)C(=O)N[C@@H](C)C(=O)N[C@@H](Cc1ccccc1)C(N)=O)C(C)C)[C@@H](C)O)C(C)C)C(C)C)C(C)C [hαCGRP] | 88 ± 14 | 153 ± 17 | 114 ± 25 | 46 ± 16 | 74 ± 9
0.1 ± 0.002 | 0.0501 | 0.646 | 0.2 | 0.0316 | CSCC[C@H](NC(=O)CNC(=O)[C@H](CO)NC(=O)[C@H](Cc1ccccc1)NC(=O)[C@H](CCCNC(=N)N)NC(=O)[C@H](Cc1c[nH]cn1)NC(=O)[C@H](Cc1ccccc1)NC(=O)[C@H](CC(N)=O)NC(=O)[C@H](CC(N)=O)NC(=O)[C@H](CC(C)C)NC(=O)[C@H](CC(N)=O)NC(=O)[C@H](CCCNC(=N)N)NC(=O)[C@H](Cc1c[nH]c2ccccc12)NC(=O)[C@H](Cc1ccc(O)cc1)NC(=O)[C@H](C)NC(=O)[C@H](CO)NC(=O)[C@H](CC(C)C)NC(=O)[C@@H](NC(=O)[C@@H]1CSSC[C@H](N)C(=O)N[C@@H](CO)C(=O)N[C@@H](CC(N)=O)C(=O)N[C@@H](CC(C)C)C(=O)N[C@@H](CO)C(=O)N[C@@H]([C@@H](C)O)C(=O)N1)C(C)C)C(=O)NCC(=O)N[C@@H](Cc1ccccc1)C(=O)NCC(=O)N1CCC[C@H]1C(=O)N[C@@H](CCC(=O)O)C(=O)N[C@H](C(=O)N1CCC[C@H]1C(N)=O)[C@@H](C)O [pCT] (H-CSNLSTCVLSAYWRNLNNFHRFSGMGFGPETP-NH2; disulfide 1-7) | 127 ± 8 | 107 ± 5 | 147 ± 16 | 84 ± 6 | 140 ± 15
– | – | – | – | – | CC(C)C[C@H](NC(=O)[C@H](CC(N)=O)NC(=O)[C@H](CC(N)=O)NC(=O)[C@H](CO)NC(=O)[C@H](CO)NC(=O)[C@H](CCCNC(=N)N)NC(=O)[C@@H](NC(=O)[C@H](CC(C)C)NC(=O)[C@H](Cc1ccccc1)NC(=O)[C@H](CC(N)=O)NC(=O)[C@H](C)NC(=O)[C@H](CC(C)C)NC(=O)[C@H](CCCNC(=N)N)NC(=O)[C@H](CCC(N)=O)NC(=O)[C@@H](NC(=O)[C@H](C)NC(=O)[C@@H]1CSSC[C@H](NC(=O)[C@@H](N)CCCCN)C(=O)N[C@@H](CC(N)=O)C(=O)N[C@@H]([C@@H](C)O)C(=O)N[C@@H](C)C(=O)N[C@@H]([C@@H](C)O)C(=O)N1)[C@@H](C)O)C(C)C)C(=O)NCC(=O)N1CCC[C@H]1C(=O)N[C@H](C(=O)N[C@@H](CC(C)C)C(=O)N1CCC[C@H]1C(=O)N1CCC[C@H]1C(=O)N[C@H](C(=O)N[C@@H](CC(N)=O)C(=O)N[C@H](C(=O)NCC(=O)N[C@@H](CO)C(=O)N[C@@H](CC(N)=O)C(=O)N[C@H](C(=O)N[C@@H](Cc1ccc(O)cc1)C(N)=O)[C@@H](C)O)C(C)C)[C@@H](C)O)C(C)C [rAmy] | 85 ± 10 | 91 ± 10 | 63 ± 14 | 97 ± 15 | 94 ± 13
– | – | – | – | – | CC(C)C[C@H](NC(=O)[C@H](CCCCN)NC(=O)CNC(=O)[C@H](CC(C)C)NC(=O)[C@@H](NC(=O)[C@@H]1CSSC[C@H](N)C(=O)N[C@@H](CO)C(=O)N[C@@H](CC(N)=O)C(=O)N[C@@H](CC(C)C)C(=O)N[C@@H](CO)C(=O)N[C@@H]([C@@H](C)O)C(=O)N1)C(C)C)C(=O)N[C@@H](CO)C(=O)N[C@@H](CCC(N)=O)C(=O)N[C@@H](CCC(=O)O)C(=O)N[C@@H](CC(C)C)C(=O)N[C@@H](Cc1c[nH]cn1)C(=O)N[C@@H](CCCCN)C(=O)N[C@@H](CC(C)C)C(=O)N[C@@H](CCC(N)=O)C(=O)N[C@H](C(=O)N[C@@H](Cc1ccc(O)cc1)C(=O)N1CCC[C@H]1C(=O)N[C@@H](CCCNC(=N)N)C(=O)N[C@H](C(=O)N[C@@H](CC(N)=O)C(=O)N[C@H](C(=O)NCC(=O)N[C@@H](CO)C(=O)NCC(=O)N[C@H](C(=O)N1CCC[C@H]1C(N)=O)[C@@H](C)O)[C@@H](C)O)[C@@H](C)O)[C@@H](C)O [sCT] | 103 ± 12 | 112 ± 11 | 119 ± 5 | 103 ± 6 | 139 ± 9

Source: paper PMC5908784, “Extracellular loops 2 and 3 of the calcitonin receptor selectively modify agonist binding and efficacy” (Biochemical Pharmacology, 2018)
